# Measured values reported in ChEMBL document CHEMBL4033626, “Design, synthesis, and structure-activity relationship study of halogen containing 2-benzylidene-1-indanone derivatives for inhibition of LPS-stimulated ROS production in RAW 264.7 macrophages” (Eur J Med Chem, 2017).
# Active and inactive are the calls of the source. No cut-off for these calls is given here.
# Tests used:
# RAW264.7 [1] = assay: Cytotoxicity against mouse RAW264.7 cells at 10 uM after 24 hrs by MTS assay; type: cell-based; conditions: raw264.7, 24 h
# RAW264.7 [2] = assay: Inhibition of LPS-stimulated ROS production in mouse RAW264.7 cells preincubated for 1 hr followed by LPS stimulation after 24 hrs by CMH2DCFDA probe-based fluorescence assay
# [3] = Cytotoxicity against mouse RAW264.7 cells assessed as cell viability at 10 uM after 24 hrs by MTS assay relative to control; type: cell-based; conditions: read-out: Activity
# Mus musculus = species on record: Mus musculus; assay: Inhibition of LPS-stimulated NADPH oxidase activation in mouse RAW264.7 cells assessed as decrease in superoxide formation at 1 uM using NADPH as substrate preincubated for 1 hr followed by LPS stimulation for 24 hrs and subsequent substrate addition after 30 mins by lucigenin-based chemiluminescence assay; type: cell-based
Compound,IC50 (RAW264.7 [2]) [µM],Activity (RAW264.7 [1]),"viability at 24 h, 10 µM [3] [%]",inhibition (Mus musculus)
O=C1/C(=C/c2cccc(OC(F)(F)F)c2)Cc2cccc(O)c21,4.62,Non-Toxic,,
O=C1/C(=C/c2cccc(Br)c2)Cc2ccc(O)cc21,3.9,Non-Toxic,,
O=C1/C(=C/c2ccc(Br)cc2)Cc2ccc(O)cc21,4.27,,< 90,
O=C1/C(=C/c2ccccc2OC(F)(F)F)Cc2ccc(O)cc21,1.33,Non-Toxic,,Active
O=C1/C(=C/c2cccc(Br)c2)Cc2cc(O)ccc21,4.05,Non-Toxic,,
O=C1/C(=C/c2cccc(C(F)(F)F)c2)Cc2cccc(O)c21,> 10,Non-Toxic,,
O=C1/C(=C/c2ccc(C(F)(F)F)cc2)Cc2ccc(O)cc21,> 10,Non-Toxic,,
O=C1/C(=C/c2cccc(OC(F)(F)F)c2)Cc2ccc(O)cc21,> 10,Non-Toxic,,
O=C1/C(=C/c2ccc(Br)cc2)Cc2cccc(O)c21,> 10,Non-Toxic,,
O=C1/C(=C/c2cccc(F)c2)Cc2cc(O)ccc21,> 10,Non-Toxic,,
O=C1/C(=C/c2cccc(F)c2)Cc2cccc(O)c21,5.61,Non-Toxic,,
O=C1/C(=C/c2ccc(Br)cc2)Cc2cc(O)ccc21,6.05,Non-Toxic,,
O=C1/C(=C/c2ccc(OC(F)(F)F)cc2)Cc2cccc(O)c21,3.15,Non-Toxic,,
O=C1/C(=C/c2ccccc2C(F)(F)F)Cc2ccc(O)cc21,2.61,Non-Toxic,,
O=C1/C(=C/c2ccc(Br)cc2)Cc2ccccc21,> 10,Non-Toxic,,
O=C1/C(=C/c2ccc(OC(F)(F)F)cc2)Cc2cc(O)ccc21,> 10,Non-Toxic,,
O=C1/C(=C/c2ccc(F)cc2)Cc2cc(O)ccc21,> 10,Non-Toxic,,
O=C1/C(=C/c2ccc(F)cc2)Cc2ccc(O)cc21,> 10,Non-Toxic,,
O=C1/C(=C/c2cccc(OC(F)(F)F)c2)Cc2cc(O)ccc21,8.01,Non-Toxic,,

Compound,IC50 (RAW264.7 [2]) [µM],Activity (RAW264.7 [1]),"viability at 24 h, 10 µM [3] [%]",inhibition (Mus musculus)
O=C1/C(=C/c2cccc(Br)c2)Cc2ccccc21,> 10,Non-Toxic,,
O=C1/C(=C/c2ccc(C(F)(F)F)cc2)Cc2cccc(O)c21,3.89,Non-Toxic,,
O=C1/C(=C/c2ccc(OC(F)(F)F)cc2)Cc2ccccc21,> 10,Non-Toxic,,
O=C1/C(=C/c2cccc(C(F)(F)F)c2)Cc2cc(O)ccc21,> 10,Non-Toxic,,
O=C1/C(=C/c2ccc(F)cc2)Cc2cccc(O)c21,5.06,Non-Toxic,,
O=C1/C(=C/c2ccc(OC(F)(F)F)cc2)Cc2ccc(O)cc21,> 10,Non-Toxic,,
O=C1/C(=C/c2ccccc2C(F)(F)F)Cc2ccccc21,> 10,Non-Toxic,,
O=C1/C(=C/c2ccc(C(F)(F)F)cc2)Cc2cc(O)ccc21,5.55,Non-Toxic,,
O=C1/C(=C/c2cccc(Br)c2)Cc2cccc(O)c21,> 10,Non-Toxic,,
O=C1/C(=C/c2ccccc2)Cc2ccccc21,> 10,,< 90,
O=C1/C(=C/c2cccc(C(F)(F)F)c2)Cc2ccccc21,> 10,Non-Toxic,,
O=C1/C(=C/c2cccc(C(F)(F)F)c2)Cc2ccc(O)cc21,4.55,Non-Toxic,,
O=C1/C(=C/c2cccc(OC(F)(F)F)c2)Cc2ccccc21,> 10,Non-Toxic,,
O=C1/C(=C/c2ccc(F)cc2)Cc2ccccc21,> 10,Non-Toxic,,
O=C1/C(=C/c2ccc(C(F)(F)F)cc2)Cc2ccccc21,> 10,Non-Toxic,,
O=C1/C(=C/c2ccccc2OC(F)(F)F)Cc2cc(O)ccc21,3.38,Non-Toxic,,
O=C1/C(=C/c2cccc(F)c2)Cc2ccc(O)cc21,> 10,Non-Toxic,,
O=C1/C(=C/c2ccccc2OC(F)(F)F)Cc2ccccc21,7.27,Non-Toxic,,

# More lines, main results first:
IC50 (RAW264.7 [2]) [µM],Compound,Activity (RAW264.7 [1]),"viability at 24 h, 10 µM [3] [%]",inhibition (Mus musculus)
> 10,O=C1/C(=C/c2cccc(OC(F)(F)F)c2)Cc2c(O)cccc21,Non-Toxic,,
> 10,O=C1/C(=C/c2ccc(OC(F)(F)F)cc2)Cc2c(O)cccc21,Non-Toxic,,
> 10,O=C1/C(=C/c2ccc(C(F)(F)F)cc2)Cc2c(O)cccc21,Non-Toxic,,
> 10,O=C1/C(=C/c2ccccc2Br)Cc2ccccc21,Non-Toxic,,
> 10,O=C1/C(=C/c2ccccc2Br)Cc2cccc(O)c21,Non-Toxic,,
> 10,O=C1/C(=C/c2ccc(F)cc2)Cc2c(O)cccc21,Non-Toxic,,
> 10,O=C1/C(=C/c2cccc(F)c2)Cc2c(O)cccc21,Non-Toxic,,
1.94,O=C1/C(=C/c2ccccc2C(F)(F)F)Cc2cccc(O)c21,Non-Toxic,,
> 10,O=C1/C(=C/c2cccc(Br)c2)Cc2c(O)cccc21,Non-Toxic,,
> 10,O=C1/C(=C/c2ccccc2Br)Cc2c(O)cccc21,Non-Toxic,,
> 10,O=C1/C(=C/c2ccccc2F)Cc2cc(O)ccc21,Non-Toxic,,
> 10,O=C1/C(=C/c2ccc(Br)cc2)Cc2c(O)cccc21,Non-Toxic,,
> 10,O=C1/C(=C/c2ccccc2C(F)(F)F)Cc2c(O)cccc21,Non-Toxic,,
> 10,O=C1/C(=C/c2ccccc2F)Cc2ccc(O)cc21,Non-Toxic,,
8.18,O=C1/C(=C/c2ccccc2Br)Cc2cc(O)ccc21,Non-Toxic,,
3.82,O=C1/C(=C/c2ccccc2F)Cc2cccc(O)c21,Non-Toxic,,
4,O=C1/C(=C/c2ccccc2Br)Cc2ccc(O)cc21,Non-Toxic,,
> 10,O=C1/C(=C/c2ccccc2F)Cc2ccccc21,Non-Toxic,,
> 10,O=C1/C(=C/c2cccc(F)c2)Cc2ccccc21,Non-Toxic,,
3.25,O=C1/C(=C/c2ccccc2OC(F)(F)F)Cc2cccc(O)c21,Non-Toxic,,
> 10,O=C1/C(=C/c2ccccc2F)Cc2c(O)cccc21,Non-Toxic,,
> 10,O=C1/C(=C/c2ccccc2C(F)(F)F)Cc2cc(O)ccc21,Non-Toxic,,
> 10,O=C1/C(=C/c2ccccc2OC(F)(F)F)Cc2c(O)cccc21,Non-Toxic,,
> 10,O=C1/C(=C/c2cccc(C(F)(F)F)c2)Cc2c(O)cccc21,Non-Toxic,,
